In US11179390B2, “Subcutaneous administration of a P2Y12 receptor antagonist” (Idorsia Pharmaceuticals Ltd, priority 2017, dated 2021):
Where “and” joins values, the source holds several entries; their conditions need not be identical. Equal values may be shown once. Where a name gives a salt, the structure may show the parent alone.

Experiments:
[1] = test system: ADP-induced AF488-Fibrinogen binding on mouse platelets; assay: AF488-Fibrinogen binding assay on whole blood after subcutaneous administration of P2Y12 receptor antagonists; type: in vivo, mouse (male Balb/c)
Source text: In-Vivo Measurements of Time Dependent Platelet Inhibition after Subcutaneous Administration of P2Y12 Receptor Antagonists:
Male Balb/c mice were purchased from Charles River laboratories (Sulzfeld, Germany). All animals were maintained under identical conditions in accordance with the guidelines of the Basel-Landschaft cantonal veterinary office. Husbandry was accomplished in professional animal housing facilities, which provided group-cages, standard diet/water ad libitum, and standard illumination and climate conditions. The technical assistants performed at least one inspection per day. Sufficient time was provided for the animals to be accustomed to the experimental environment. Stress reduction was provided also by enrichment of cages, and providing the possibility to retire to dark housings (taking advantage of the color blindness of albino mice in the red range of the light spectrum). Inside the red housing the animals have the impression of being in the dark, while this housing remains visible to normal human vision.
Compound 1 hydrochloride, 0.2 mg/kg (respectively 5 mL/kg)
Elinogrel, 30 mg/kg (respectively 5 mL/kg)
Cangrelor, 0.2 mg/kg (respectively 5 mL/kg)
After an acclimatization period of at least 7 days, mice were anesthetized with Isoflurane (2-5%). The animals were then placed on a thermostatically-controlled heating table to maintain body temperature at 36-38° C. A polyurethane catheter (BTPU-027) was inserted into the right jugular vein and advanced into the vena cava for infusion of Heparin and to collect blood. […] Therefore Heparin (4000 U/kg/2.5 mL) was intravenously injected to prevent blood from coagulation.
Two minutes after the injection of Heparin, 60 μL of whole blood was collected via the vena cava catheter (baseline). […] 10, 20, 30, 40 and 60 minutes after the subcutaneous injection of the test compounds, 60 μL of whole blood were collected via the vena cava catheter for the fibrinogen binding assay.
(§1) This assay is particularly well adapted for reliable studies of the effect of P2Y12 antagonists on mouse platelets under in vitro and in vivo conditions. The assay allows to measure ADP-induced AF488-Fibrinogen binding on mouse platelets in only 6 μL whole blood and without washing steps.
(§2) Next, 10 μL of AF488-Fibrinogen (to give 0.5 mg/mL final concentration) were added followed by incubation of 5 minutes. To induce AF488-Fibrinogen binding, the platelets were then incubated with 10 μL ADP (to give 20 μM final concentration) for 5 minutes. In addition, an incubation with a platelet specific Allophycocyanin (APC) anti-Mouse CD61 (integrin beta 3) antibody (clone 2C9.G2) was performed for 10 minutes. The platelets were then fixed by addition of 34 μL cold paraformaldehyde solution (to give 0.1% final concentration) and stored at 4° C. for about 20 minutes. The samples were finally diluted with 1.8 mL cold PBS and put on hold at 4° C. for at least 2 hours, time necessary for gently red blood cell lysis, before measuring by flow cytometry.
Flow cytometry was performed using a FACSCanto II instrument (BD Bioscience). The setting of fluorescence compensation was not required due to the use of two different lasers.
Platelets were first detected using the platelet specific fluorescence signal of APC-CD61 (APC-settings for fluorescence emission peak at 660 nm). The platelet population was then gated using forward-scatter (FSC) and side-scatter (SSC) and their FITC-labeled Fibrinogen signal (FITC-settings for fluorescence emission peak at 525 nm) was quantitated as Mean Fluorescence Intensity (MFI) of 5000 platelets. For each sample, the MFI from corresponding nonspecific sample was subtracted.

[2] = test system: ADP-induced AF488-Fibrinogen binding on platelets; assay: In vitro inhibition of ADP-induced AF488-Fibrinogen binding (nonspecific signal control); type: cell-based; settings: Mus musculus, Platelet, 0.25 h; 2 μM final concentration in diluted blood, 15 minutes at RT, 20 μM ADP; prior experiments
Protocol: as §1
as §2, with “The blood was first incubated with 4 μL vehicle or 4 μL Compound 1 hydrochloride (to give 2 μM final concentration in diluted blood) for 15 minutes at RT. This concentration of Compound 1 hydrochloride was determined in prior experiments to inhibit 100% of ADP-induced AF488-Fibrinogen binding on platelets and represents the nonspecific signal. Next,” for “Next,”

Question: How did the “Mean Fluorescence Intensities of AF488-Fibrinogen binding to platelets” value (“Mean Fluorescence Intensities” for short) ([1]; 0.2 mg/kg s.c., 10 min after injection) turn out when CSCCNc1nc(SCCC(F)(F)F)nc2c1ncn2[C@@H]1O[C@H](COP(=O)(O)OP(=O)(O)C(Cl)(Cl)P(=O)(O)O)[C@@H](O)[C@H]1O [Cangrelor] was run?
Answer: Its value is 1596 MFI and 1628 MFI and 2550 MFI.

Question: What about the “Mean Fluorescence Intensities” value ([1]; 0.2 mg/kg s.c., 20 min after injection) of the same compound?
Answer: The value was 713 MFI and 1364 MFI and 1012 MFI.

Question: And the “Mean Fluorescence Intensities” value ([1]; 0.2 mg/kg s.c., 40 min after injection)?
Answer: The value was 765 MFI and 732 MFI and 921 MFI.

Question: What about the “Mean Fluorescence Intensities” value ([1]; 0.2 mg/kg s.c., 60 min after injection) of the same compound?
Answer: Its value is 1048 MFI and 682 MFI and 961 MFI.

Question: What about the “Mean Fluorescence Intensities” value ([1]; 0.2 mg/kg s.c., time 0 min (baseline, before injection)) of the same compound?
Answer: Its value is 6200 MFI and 7453 MFI and 5476 MFI.

Question: CCCCOC(=O)N1CCN(C(=O)[C@H](CP(=O)(O)O)NC(=O)c2cc(N3CC[C@H](OC)C3)nc(-c3ccccc3)n2)CC1 [Compound 1 hydrochloride, ((R)-3-(4-(butoxycarbonyl)piperazin-1-yl)-2-(6-((S)-3-methoxypyrrolidin-1-yl)-2-phenylpyrimidine-4-carboxamido)-3-oxopropyl)phosphonic acid hydrochloride] was tested. Which inhibition at 2 µM [2] did it give?
Answer: Its inhibition at 2 µM is 100%.

Question: CNc1cc2[nH]c(=O)n(-c3ccc(NC(=O)NS(=O)(=O)c4ccc(Cl)s4)cc3)c(=O)c2cc1F [Elinogrel] was tested. Which “Mean Fluorescence Intensities” value ([1]; 30 mg/kg s.c., 10 min after injection) did it give?
Answer: The value was 4403 MFI and 4712 MFI and 3842 MFI and 3840 MFI.

Question: What about the “Mean Fluorescence Intensities” value ([1]; 30 mg/kg s.c., 20 min after injection) of the same compound?
Answer: The value was 2374 MFI and 3847 MFI and 2177 MFI and 4078 MFI.

Question: What about the “Mean Fluorescence Intensities” value ([1]; 30 mg/kg s.c., 40 min after injection) of the same compound?
Answer: Its value is 1644 MFI and 1768 MFI and 1652 MFI and 2619 MFI.

Question: And the “Mean Fluorescence Intensities” value ([1]; 30 mg/kg s.c., 60 min after injection)?
Answer: The value was 2034 MFI and 1503 MFI and 1515 MFI and 2191 MFI.

Question: And the “Mean Fluorescence Intensities” value ([1]; 30 mg/kg s.c., time 0 min (baseline, before injection))?
Answer: Its value is 8124 MFI and 5370 MFI and 7045 MFI and 7097 MFI.
